Patent publication US9795600B2, “Method for treating abnormal β-amyloid mediated diseases” (NATIONAL TAIWAN NORMAL UNIVERSITY, priority 2014, dated 2017)

Experiments:
[1] = target: T1, Trx-His-Aβ protein (Homo sapiens, UniProt P05067); test: Trx-His-Aβ biochemical assay (thioflavin T staining); conditions: Trx-His-Aβ 10 μM, 37° C., 48 hr, Trx-His-Aβ with 2 days' incubation = 100%
T1 construct: the inventors overexpressed Trx-His tagged Aβ construct in E. coli; made in house; host or cells: E. coli
Protocol: Aggregation of β-amyloid (Aβ) was considered as target for intervention. For the biochemical assay, the inventors overexpressed Trx-His tagged Aβ construct in E. coli. After metal-affinity chromatography purification, the misfolded Trx-His-Aβ proteins can be identified by thioflavin T staining assay. The fluorescent intensity is increased after thioflavin T binds misfolded Trx-His-Aβ protein, and thus the misfolding level of Trx-His-Aβ protein can be measured. […] Then thioflavin T (10 μM) was added for 5 min and fluorescence analyzed on a microplate reader (excitation: 420 nm, emission: 485 nm). To normalize, the relative thioflavin T fluorescence of Trx-His-Aβ protein with 2 days' incubation at 37° C. is set as 100%. *, P<0.05 (n=3).

[2] = tested on: Tet-On Aβ-GFP HEK-293 cells; test: Tet-On Aβ-GFP HEK-293 cell assay (GFP fluorescence, HCA); assay type: cell-based, human; conditions: 8 hr pretreatment, Dox 64 hr, untreated cells = 100%
Description: For cell assay, we used a HEK-293 cell clone (human embryonic kidney cells) with Tet-On Aβ-GFP expression as a screening platform. GFP fluorescence was used to reflect Aβ aggregation status as Aβ aggregated rapidly to cause the fused GFP misfolded. Inhibition of Aβ aggregation may improve GFP misfolding, leading to increasing fluorescence on Aβ-GFP expressing cells. Tet-On Aβ-GFP HEK-293 cells were pretreated with different concentrations of compounds 1, 2, 6, 7 and curcumin for 8 hr before inducing Aβ-GFP expression. Then doxycycline (Dox) (10 μM) was added to the medium for 64 hr to induce Aβ-GFP expression, and GFP fluorescence was assessed by a high-content analysis (HCA) system (ImageXpressMICRO, available from Molecular Devices). To normalize, the relative GFP fluorescence of untreated cells (untreated with compounds 1, 2, 6 and 7, and curcumin) is set as 100%. *, P<0.05 as compared to the untreated cells; #, P<0.05 as compared to the same concentration curcumin-treated cells (n=3).

[3] = tested on: mouse hippocampal primary culture; test: Mouse hippocampal primary culture under oligomeric Aβ toxicity; assay type: cell-based; conditions: 1, 10 or 30 μM, oligomeric Aβ 1 μM, vs. Aβ alone; for total cells (DAPI staining) against oligomeric Aβ toxicity: FIG. 7(A); for mature neurons (NeuN staining) against oligomeric Aβ toxicity: FIG. 7(B); for synaptophysin level against oligomeric Aβ toxicity: FIG. 7(F); for neurite outgrowth (process, branch, length; MAP2 staining) against oligomeric Aβ toxicity: FIGS. 7(C)-(E)
Protocol: Postnatal day 0-1 mouse hippocampus was isolated for primary culture, and used to confirm the neuroprotective potential of the compounds of the present invention. Oligomeric Aβ (1 μM) was applied to the primary culture after the indolylquinoline compound (compounds 1, 2, 6 and 7) administration (1, 10, or 30 μM) at day 9. Cells were harvested 1 hr later for immunocytochemical analysis and quantitated the total cell number (as shown in FIG. 7(A), by DAPI staining), mature neuron number (as shown in FIG. 7(B), by NeuN antibody staining), neurite process (as shown in FIG. 7(C), by MAP2 antibody staining), neurite branch (as shown in FIG. 7(D), by MAP2 antibody staining), neurite length (as shown in FIG. 7(E), by MAP2 antibody staining), and synaptophysin expression level (as shown in FIG. 7(F), by synaptophysin antibody staining) In FIG. 7(A) to (F), the relative amount of cells treated with vesicle (hexafluoroisopropanol) is set as 100%. ###, P<0.001 between cells treated with Aβ and vehicle (n=3). *, P<0.05; **, P<0.01; ***, P<0.001 between cells treated with Aβ combined the compound of the present invention and Aβ alone (n=3).

[4] = tested on: HSPB1; test: HSPB1 expression in Aβ-GFP SH-SY5Y cells (Western blot); assay type: cell-based, human; conditions: 5 μM; uninduced cells = 100%, induced untreated cells 90%
Description: The result is shown in FIG. 6, wherein the relative HSPB1 level of uninduced cells is set as 100%. *, P<0.05 between induced vs uninduced cells or compound-treated vs. untreated cells (n=3).

[5] = tested on: Tet-On Aβ-GFP HEK-293 cells; test: ROS assay in Tet-On Aβ-GFP HEK-293 cells; assay type: cell-based, human; conditions: 5 μM; uninduced cells = 100%, induced untreated cells 128%
Protocol: Given that Aβ deposition causes cell death via a number of potential mechanisms including oxidative stress, the inventor also performed ROS assay with curcumin or synthetic indolylquinoline compounds 1, 2, 6 and 7 treatment (5 μM).

[6] = tested on: Tet-On Aβ-GFP SH-SY5Y cells; test: Neurite outgrowth in Tet-On Aβ-GFP SH-SY5Y cells (TUBB3 immunostaining, HCA); assay type: cell-based, human; conditions: 5 μM; Dox 6 days; uninduced cells = 100%, induced untreated cells 87%
Protocol: Tet-On Aβ human neuroblastoma SH-SY5Y cells were used to examine the neuroprotective potential of the compounds of the present invention. Tet-On Aβ-GFP SH-SY5Y cells were plated into 24-well plates with 10 μM retinoic acid (RA), grown for 24 hr and treated with tested indolylquinoline compounds 1, 2, 6 and 7 (5 μM) for 8 hr. Then doxycycline (10 μM) was added to the medium to for 6 days. Neurite outgrowth was assessed after TUBB3 immunostaining, and examined with the HCA system. The result is shown in FIG. 5, wherein the relative neurite outgrowth of uninduced cells (untreated with Dox) is set as 100%. *, P<0.05 between induced vs. uninduced cells or compound-treated vs. untreated cells (n=3).

[7] = 1.2˜5.0 μM, above 80% of viable cells

T1 sequence (P05067 672-713 limits assumed): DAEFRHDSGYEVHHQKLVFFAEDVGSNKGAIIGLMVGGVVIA

CC(=O)C(=Cc1ccccc1[N+](=O)[O-])Cc1c[nH]c2ccccc12 [compound 1]
relative thioflavin T fluorescence (misfolded Trx-His-Aβ aggregation) ([1]; 20 μM compound): 79% | relative GFP fluorescence (Aβ-GFP) [2, 7]: 112˜129% | total cells (DAPI staining) against oligomeric Aβ toxicity [3]: significantly improved | mature neurons (NeuN staining) against oligomeric Aβ toxicity [3]: significantly improved | synaptophysin level against oligomeric Aβ toxicity [3]: significantly improved | neurite outgrowth (process, branch, length; MAP2 staining) against oligomeric Aβ toxicity [3]: significantly improved | relative HSPB1 level [4]: 126%

CC(=O)C(=Cc1ccccc1[N+](=O)[O-])Cc1c(C)[nH]c2ccccc12 [compound 2]
relative thioflavin T fluorescence (misfolded Trx-His-Aβ aggregation) ([1]; 10˜20 μM compound): 74˜70% | relative GFP fluorescence (Aβ-GFP) ([2]; 1.2˜2.5 μM, above 80% of viable cells): 107˜120% | total cells (DAPI staining) against oligomeric Aβ toxicity [3]: significantly improved | mature neurons (NeuN staining) against oligomeric Aβ toxicity [3]: significantly improved | synaptophysin level against oligomeric Aβ toxicity [3]: significantly improved | neurite outgrowth (process, branch, length; MAP2 staining) against oligomeric Aβ toxicity [3]: significantly improved | relative HSPB1 level [4]: 112%

Cc1nc2ccccc2cc1Cc1c[nH]c2ccccc12 [compound 7]
relative thioflavin T fluorescence (misfolded Trx-His-Aβ aggregation) ([1]; 20 μM compound): 84% | relative GFP fluorescence (Aβ-GFP) ([2]; 1.2 μM, above 80% of viable cells): 105% | total cells (DAPI staining) against oligomeric Aβ toxicity [3]: significantly improved | mature neurons (NeuN staining) against oligomeric Aβ toxicity [3]: significantly improved | synaptophysin level against oligomeric Aβ toxicity [3]: significantly improved | neurite outgrowth (process, branch, length; MAP2 staining) against oligomeric Aβ toxicity [3]: significantly improved | relative HSPB1 level [4]: 117%

COc1cc(/C=C/C(=O)CC(=O)/C=C/c2ccc(O)c(OC)c2)ccc1O [curcumin, reference compound]
relative thioflavin T fluorescence (misfolded Trx-His-Aβ aggregation) ([1]; 5˜20 μM compound): 76˜54% | relative ROS level [5]: 86% | relative GFP fluorescence (Aβ-GFP) ([2]; 2.5˜5.0 μM): 111˜122% | relative neurite outgrowth [6]: 105% | relative HSPB1 level [4]: 123%

CCc1cccc2c(CC(=Cc3ccccc3[N+](=O)[O-])C(C)=O)c[nH]c12 [compound 6]
relative thioflavin T fluorescence (misfolded Trx-His-Aβ aggregation) ([1]; 5˜20 μM compound): 90˜71% | relative GFP fluorescence (Aβ-GFP) [2, 7]: 107˜130% | total cells (DAPI staining) against oligomeric Aβ toxicity [3]: significantly improved | mature neurons (NeuN staining) against oligomeric Aβ toxicity [3]: significantly improved | synaptophysin level against oligomeric Aβ toxicity [3]: significantly improved | neurite outgrowth (process, branch, length; MAP2 staining) against oligomeric Aβ toxicity [3]: significantly improved | relative HSPB1 level [4]: 116%
